From patent US20180207111A1, “IMMUNOTHERAPY FOR CASR-EXPRESSING CANCER (E.G. NEUROBLASTOMA)” (HOSPITAL SANT JOAN DE DEU, priority 2015, published 2018)

Columns and labels:
LA-N-1 cells = assay: Morphological assessment of neuroblastoma cells exposed to Cinacalcet; type: cell-based, Homo sapiens; conditions: 1 μM Cinacalcet vs DMSO; day 3
Method: FIG. 1 is a micrograph showing the morphological assessment of LA-N-1 cells exposed to 1 μM Cinacalcet (C) or DMSO (vehicle (V)) for 3 days (3d) and 14 days (14d).
(§1) Three neuroblastoma cell lines LA-N-1, SK-N-LP and SH-SY5Y were used for this purpose. […] No expression of the CaSR is detectable in SH-SY5Y either. Thus, SK-N-LP and SH-SY5Y were stably transfected with pCMV-CaSR-GFP or pCMV-GFP. All cell lines were grown in the presence of 1 μM Cinacalcet (Selleck Chemicals, S1260) or DMSO for 21 days in P100 plates. Morphology was assessed daily. Total RNA was isolated at days 1, 3, 5, 7, 10, 14 and 21. Several markers were analyzed by RT-qPCR using SYBRgreen and specific primers or Taqman technology and gene-specific Assays-on-Demand (Applied Biosystems) (Table 1).
(§2) These features reached maximal expression between days 7 and 14 (FIG. 1). […] Neuroblastoma cytodifferentiation is an indication of this tumor becoming more benign, less proliferative. […] Moreover, upregulation of these differentiation-associated genes and CTAs both in vitro and in vivo (see Examples 2-4) validates the proposed in vitro model (doses used, time of exposure, etc) as a good model to evaluate neuroblastoma response to treatment with Cinacalcet.

[1] = test system: normal surrounding tissues; assay: Genome-wide expression analysis of murine genes in xenograft RNAs, Affymetrix Mouse Gene Array 2.1 ST; type: in vivo
Method: Genome-wide expression analyses were performed using Affymetrix Human and Mouse Gene Array 2.1 ST (Affymetrix, reference number 902136 for human gene array and 902120 for mouse gene array) as per manufacturer's protocol. Procedures to analyze results included: Quality control of the arrays (following this step, xenograft C6 was removed from further analyses); filtering and normalization; selection of differentially expressed genes; single comparison (treated versus control samples); list of differentially expressed genes ranked by significance; Volcano plots showing the most differentially expressed genes; heatmaps of the clustered expression profiles; and analysis of biological significance through enrichment analysis against the Gene Ontologies, KEGG (Kyoto Encyclopedia of Genes and Genomes) and Ingenuity pathways.
In order to evaluate whether upregulation of CTAs was a tumor-specific effect or it was induced in normal surrounding tissues as well, a genome-wide expression analysis by means of microarrays was conducted using a chip to detect murine genes differentially expressed in the same RNAs analyzed in the human array.

SK-N-LP CaSR/GFP = assay: RT-qPCR mRNA expression in SK-N-LP CaSR/GFP neuroblastoma cells grown with Cinacalcet; type: cell-based, Homo sapiens; conditions: 1 μM Cinacalcet vs DMSO, up to 21 days
Method: as §1, §2

LA-N-1 = assay: RT-qPCR mRNA expression in LA-N-1 neuroblastoma cells grown with Cinacalcet; type: cell-based, Homo sapiens; conditions: 1 μM Cinacalcet vs DMSO, up to 21 days
Method: as §1, §2

[2] = test system: LA-N-1 cells subcutaneous xenograft; assay: In vivo neuroblastoma model: tumor growth / event-free survival; set-up: species or system mice; conditions: 10 mg/kg/day oral gavage 6 days per week vs vehicle; log-rank P=0.034; FIG. 2A
Method: An in vivo model of neuroblastoma was generated in four to six-week-old female athymic Nude-Foxn1 nu/nu mice (Charles Rivers), wherein LA-N-1 cells (10^7) were subcutaneously inoculated. Tumors were allowed to grow until dimensions reached 7×7 mm. Then mice were randomized to receive either vehicle (described below) or Cinacalcet (10 mg/kg/day) by oral gavage 6 days per week until tumor volume reached 2 cm^3. Cinacalcet was prepared with Mimpara® tablets (Amgen). Following homogenization of the Mimpara® tablets in a mortar, the resulting powder was reconstituted with 0.5% Tween 20 (20%, v/v) and carboxymethylcellulose (0.25%, w/v) to a final concentration of […]. Each dose contained 5 μL of this mixture per gram of mouse weight. Dimensions of tumors were measured thrice a week using a digital caliper. Tumor volume was calculated as L×W^2/2 in which “L” indicates length in mm and “W” indicates width in mm. At the end of the experiment (each mouse was sacrificed when the corresponding xenograft reached the final pre-determined volume 2 cm^3), tumors were excised and half of each specimen was frozen in liquid nitrogen for molecular analyses and the other was fixed in 10% formalin. For event-free survival (EFS) analysis, an event was defined as tumor size that exceeded 2 cm^3. The log-rank statistic was used to compare the EFS probabilities between groups. […]

[3] = Plasmatic ionic Ca2+ and tolerability in xenograft-bearing mice; type: in vivo
Source text: FIG. 2 comprises graphs showing (A) Effect of Cinacalcet treatment on survival (%) in an in vivo neuroblastoma model treated with Cinacalcet (triangle) or vehicle (circle) over time (days); (B) Plasmatic ionic Ca^2+ concentrations (mmol/L) in mice receiving Cinacalcet (triangle) or vehicle (circle) over time (weeks).
An in vivo model of neuroblastoma was generated in four to six-week-old female athymic Nude-Foxn1 nu/nu mice (Charles Rivers), wherein LA-N-1 cells (10^7) were subcutaneously inoculated. Tumors were allowed to grow until dimensions reached 7×7 mm. Then mice were randomized to receive either vehicle (described below) or Cinacalcet (10 mg/kg/day) by oral gavage 6 days per week until tumor volume reached 2 cm^3. Cinacalcet was prepared with Mimpara® tablets (Amgen). […] Dimensions of tumors were measured thrice a week using a digital caliper. Tumor volume was calculated as L×W^2/2 in which “L” indicates length in mm and “W” indicates width in mm. At the end of the experiment (each mouse was sacrificed when the corresponding xenograft reached the final pre-determined volume 2 cm^3), tumors were excised and half of each specimen was frozen in liquid nitrogen for molecular analyses and the other was fixed in 10% formalin. […]

[4] = Mus musculus genes in xenograft RNAs, Cinacalcet vs vehicle, adjusted P 0.80678117

C[C@@H](NCCCc1cccc(C(F)(F)F)c1)c1cccc2ccccc12 [Cinacalcet]
Morphological features of neuronal differentiation (LA-N-1 cells): extensive neurite outgrowth | Log fold change, murine probe 17395227 (Gm14399) ([1]; Mus musculus genes in xenograft RNAs, Cinacalcet vs vehicle, adjusted P 0.60678117): 1.067 | Log fold change, murine probe 17262250 (Tgtp2//Tgtp1) ([1]; Mus musculus genes in xenograft RNAs, Cinacalcet vs vehicle, adjusted P 0.80676117): 1.108 | Log fold change, murine probe 17302054 (Snora31) [1, 4]: 1.105 | Log fold change, murine probe 17352957 (Dsc1) [1, 4]: 1.033 | Log fold change, murine probe 17380529 (Gm14419//Gm14391//Gm6710) [1, 4]: 1.033 | Log fold change, murine probe 17386477 (Gm11084) [1, 4]: 1.567 | Log fold change, murine probe 17458439 (Gpnmb) [1, 4]: 1.221 | Log fold change, murine probe 17483098 (Gdpd3) [1, 4]: 1.309 | Log fold change, murine probe 17503825 (Mmp2) [1, 4]: 1.046 | Log fold change, murine probe 17546762 (LOC101055644//Mid1//MID1) [1, 4]: 1.088 | Log fold change, murine probe 17546774 (Erdr1//Dock9) [1, 4]: 1.341 | Upregulation of CTAs in normal surrounding (murine) tissues ([1]; murine microarray, also when C9-C11 analyzed, no gene significant (adjusted P-value >0.05)): CTAs were not amongst the over-expressed genes | CTCFL mRNA fold increase (SK-N-LP CaSR/GFP): no expression | MAGEA2 mRNA fold increase (SK-N-LP CaSR/GFP): 36.6 fold | MAGEA3 mRNA fold increase (SK-N-LP CaSR/GFP): 155.4 fold | NFL mRNA fold increase (SK-N-LP CaSR/GFP): 7.2 fold | NTRK1 mRNA fold increase (SK-N-LP CaSR/GFP): 3.6 fold | NTRK3 mRNA fold increase (SK-N-LP CaSR/GFP): 2.6 fold | S100-β mRNA fold increase (SK-N-LP CaSR/GFP): 72.3 fold | SSX4/4B mRNA fold increase (SK-N-LP CaSR/GFP): 69 fold | TUBB3 mRNA fold increase (SK-N-LP CaSR/GFP): 2.8 fold | GAGE-P1 mRNA fold increase (SK-N-LP CaSR/GFP; primer pair GAGE P1): 4.1 fold | GAGE-P2 mRNA fold increase (SK-N-LP CaSR/GFP; primer pair GAGE P2): 5.7 fold | GAGE-P3 mRNA fold increase (SK-N-LP CaSR/GFP; primer pair GAGE P3): 6.3 fold | CTCFL mRNA fold increase (LA-N-1): 1.2 fold | MAGEA2 mRNA fold increase (LA-N-1): 2.9 fold | MAGEA3 mRNA fold increase (LA-N-1): 1.4 fold | NFL mRNA fold increase (LA-N-1): ns | NTRK1 mRNA fold increase (LA-N-1): 3.2 fold | NTRK3 mRNA fold increase (LA-N-1): 2.4 fold | S100-β mRNA fold increase (LA-N-1): 6.9 fold | SSX4/4B mRNA fold increase (LA-N-1): 3.8 fold | TUBB3 mRNA fold increase (LA-N-1): ns | GAGE-P1 mRNA fold increase (LA-N-1; primer pair GAGE P1): 2.7 fold | GAGE-P2 mRNA fold increase (LA-N-1; primer pair GAGE P2): 7.6 fold | GAGE-P3 mRNA fold increase (LA-N-1; primer pair GAGE P3): 5.1 fold | Tumor growth (event-free survival, event = tumor size > 2 cm^3) [2]: significant tumor growth inhibition | Plasmatic ionic Ca2+ concentration ([3]; mice, 10 mg/kg/day oral gavage, FIG. 2B): Mild, non-symptomatic, hypocalcemia | Signs of toxicity ([3]; mouse, in vivo, po, 10 mg/kg/day): No signs of toxicity were observed
